The results in this text go back to US20040219238A1, “Remedies” (priority 2001, published 2004).

The test system of data set [1] is NGF. Nature of the data set: NGF content in rat tissues after forced oral administration of xanthohumol (enzyme immunoassay). In kind it is in vivo, rat (SD). Conditions: excised on fifth day, average ± standard error, n=4. On the procedure:
(§1) (2) Male SD rats were purchased from Japan SLC, Inc., and used for an experiment from 7-week old after preliminary rearing. Xanthohumol described in Example 1 was suspended in distilled water, and the rats were subjected to forced oral administration of the suspension at a ratio of 3 and 10 mg of xanthohumol respectively per 1 kg of body weight. In addition, the suspension was intraperitoneally administered at a ratio of 1, 3 or 10 mg of xanthohumol. A control group was administered with distilled water in the same manner as above. In either group, four rats were administered once a day for consecutive days. In the case of the forced oral administration, the submandibular gland and the brain were excised on the fifth day from the beginning of administration. In the case of the intraperitoneal administration, ischiadic nerve and gastrocneminal muscle were excised at 4 hours after the end of administration on the third day. The excised tissues were homogenized and centrifuged, and the NGF contents in the supematant were determined by enzyme immunoassay method (manufactured by Roche).
(§2) The numbers in the tables represent an average value ± standard error for the four cases. In addition, an asterisk * symbol means that the group has a significant difference at a significance level of 5% or less as compared to the control group according to Student-t test, and a triple asterisk *** symbol means that the group similarly has a significant difference at a significance level of 0.1% or less.

For data set [2], the system named is NGF. Nature of the data set: NGF content in rat tissues after intraperitoneal administration of xanthohumol (enzyme immunoassay). To be noted: excised 4 hours after administration on third day, average ± standard error. In kind it is in vivo, rat (SD). How it is done:
as §1, §2

Data set [3] is classed as in vivo. Conditions: mouse, 1 g/kg in a single dose. How it is done: No toxicity is found even when the above-mentioned effective ingredient usable in the present invention is administered in an amount effective for the exhibition of its action.
Data set [4] in a line: Water maze test in rats with ibotenic acid-induced learning and memory disorder. Format: in vivo, rat (Wistar). Conditions: forced oral 10 mg/kg once a day, average ± standard error, n=9. On the procedure:
Male Wistar rats were purchased from Japan SLC, Inc., and used for an experiment from 7-week old after preliminary rearing. Ibotenic acid was administered intracerebrally to cause a learning and memory disorder. Nine rats were used for each group, and administration was begun one week after the administration of ibotenic acid. Xanthohumol of Example 1 was suspended in distilled water, and the rats were subjected to forced oral administration with the suspension at a ratio of 10 mg of xanthohumol per 1 kg of body weight. A control group was administered with distilled water in the same manner as above. The rats were administered once a day for consecutive days. A water maze test was carried out on and after the seventh day from the beginning of the administration to evaluate ability of recognizing spaces and directions.
The water maze test method was carried out as follows. Water of about 22° C. was charged in a large-scaled water vessel. A platform was set at a height of 2 cm below the water level, and rats were made to enter into water. The rats in water swim around so as to escape from water and take refuge in the platform. The time period from entering into water to taking refuge in the platform was recorded. After taking the refuge, the rats were made to observe surrounding environments on the platform. […]

[5] abbreviates: forced oral 10 mg/kg once a day.
Setting [6] is: intraperitoneal 1 mg/kg once a day.
[7] abbreviates: intraperitoneal 3 mg/kg once a day.
The mark [8] stands for this setting: intraperitoneal 10 mg/kg once a day.

Each structure is given as a SMILES string. Marks after values point to notes of the source that are not given here.

For `COc1cc(O)c(CC=C(C)C)c(O)c1C(=O)/C=C/c1ccc(O)cc1` [Xanthohumol, xanthohumol], the results for the “NGF Content in Brain of Rat” value in data set [1] (forced oral 3 mg/kg once a day) and in data set [1] (setting [5]) were 508.2 ± 95.1 pg/g tissue and 524.9 ± 200.7 pg/g tissue, respectively. Moreover, the “NGF Content in Submandibular Gland of Rat” value was 8.88 ± 0.98*** ng/g tissue in data set [1] (forced oral 3 mg/kg once a day) and 13.39 ± 0.65*** ng/g tissue in data set [1] (setting [5]). Moreover, the “NGF Content in Gastrocneminal Muscle of Rat” value in data set [2] (setting [6]) stood at 48.0 ± 3.4 pg/g tissue; in data set [2] (setting [7]), 53.9 ± 4.0 pg/g tissue; in data set [2] (setting [8]), 56.8 ± 3.3 pg/g tissue. Besides, the results for the “NGF Content in Ischiadic Nerve of Rat” value in data set [2] (setting [6]), in data set [2] (setting [7]) and in data set [2] (setting [8]) were 386.4 ± 30.1* pg/g tissue, 351.6 ± 26.8 pg/g tissue and 445.7 ± 59.1 pg/g tissue, respectively. In addition, in data set [3], the cases of deaths entry is “no cases of deaths are found”. The “Time Period from entering water to taking refuge in the platform, First Trial” value in data set [4] (on and after seventh day) was determined as 140.7 ± 14.7 s. For the same compound, the “Time Period from entering water to taking refuge in the platform, Second Trial” value in data set [4] (second trial on next day) was 71.3 ± 10.8 s.
